According to PubChem BioAssay (NCI):
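1) Cells in 96-well plates. 2) Compound, 48 h, 5 concentrations. 3) Linear interpolation between surrounding doses. 4) Unreached endpoint = highest concentration. Definition used: TGI = concentration required for complete inhibition of growth.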

Columns and labels:
Assay in all cases: inhibition of tumour cell growth, NCI panel, 48 h
[1] = test system: 786-0 renal
[2] = test system: A498 renal
[3] = test system: A549 NSCLC
[4] = test system: ACHN renal
[5] = test system: BT-549 breast
[6] = test system: CAKI-1 renal
[7] = test system: CCRF-CEM leukemia
[8] = test system: COLO 205 colon
[9] = test system: DU-145 prostate
[10] = test system: EKVX NSCLC
[11] = test system: HCT-116 colon
[12] = test system: HCT-15 colon
[13] = test system: HL-60(TB) leukemia
[14] = test system: HOP-62 NSCLC
[15] = test system: HOP-92 NSCLC
[16] = test system: HS 578T breast
[17] = test system: HT29 colon
[18] = test system: IGROV1 ovarian
[19] = test system: K-562 leukemia
[20] = test system: KM12 colon
[21] = test system: LOX IMVI melanoma
[22] = test system: M14 melanoma
[23] = test system: MALME-3M melanoma
[24] = test system: MDA-MB-231 breast
[25] = test system: MDA-MB-435
[26] = test system: MDA-N
[27] = test system: MOLT-4 leukemia
[28] = test system: NCI-H226 lung
[29] = test system: NCI-H23 lung
[30] = test system: NCI-H460 lung
[31] = test system: NCI-H522 lung
[32] = test system: NCI/ADR-RES ovarian
[33] = test system: OVCAR-3 ovarian
[34] = test system: OVCAR-4 ovarian
[35] = test system: OVCAR-5 ovarian
[36] = test system: OVCAR-8 ovarian
[37] = test system: PC-3 prostate
[38] = test system: RPMI-8226 leukemia
[39] = test system: RXF 393 renal
[40] = test system: SF-268 CNS
[41] = test system: SF-295 CNS
[42] = test system: SF-539 CNS
[43] = test system: SK-MEL-2 melanoma
[44] = test system: SK-MEL-28 melanoma
[45] = test system: SK-MEL-5 melanoma
[46] = test system: SK-OV-3 ovarian
[47] = test system: SN12C renal
[48] = test system: SNB-19 CNS
[49] = test system: SNB-75 CNS
[50] = test system: SR leukemia
[51] = test system: SW-620 colon
[52] = test system: TK-10 renal
[53] = test system: U251 CNS
[54] = test system: UACC-257 melanoma
[55] = test system: UACC-62 melanoma
[56] = test system: UO-31 renal
[57] = test system: HCC-2998 colon
[58] = test system: MCF7 breast

COc1cc(OC)c(-c2ccc(OCc3ccccc3)c3c(OC)cc(C)cc23)c2c1C(C)=N[C@H](C)C2
TGI [1]: 3.8 µM | TGI [2]: 3.93 µM | TGI [3]: 4.22 µM | TGI [4]: 4.01 µM | TGI [5]: 7.93 µM | TGI [6]: > 12.5 µM | TGI [7]: 4.36 µM | TGI [8]: 4.5 µM | TGI [9]: 4.16 µM | TGI [10]: 4.39 µM | TGI [11]: 3.97 µM | TGI [12]: 4 µM | TGI [13]: 4.4 µM | TGI [14]: 4.16 µM | TGI [15]: 3.35 µM | TGI [16]: 4.41 µM | TGI [17]: 3.84 µM | TGI [18]: 3.57 µM | TGI [19]: 3.43 µM | TGI [20]: 4.07 µM | TGI [21]: 3.65 µM | TGI [22]: 3.79 µM | TGI [23]: 3.57 µM | TGI [24]: 4.18 µM | TGI [25]: 4.12 µM | TGI [26]: 4 µM | TGI [27]: 4.28 µM | TGI [28]: 5.52 µM | TGI [29]: 4.23 µM | TGI [30]: 3.84 µM | TGI [31]: 3.6 µM | TGI [32]: 3.92 µM | TGI [33]: 4.08 µM | TGI [34]: 4.01 µM | TGI [35]: 4.44 µM | TGI [36]: 3.68 µM | TGI [37]: 3.9 µM | TGI [38]: 3.61 µM | TGI [39]: 4.94 µM | TGI [40]: 3.56 µM | TGI [41]: 3.78 µM | TGI [42]: 4.32 µM | TGI [43]: 4.09 µM | TGI [44]: 4.38 µM | TGI [45]: 4.1 µM | TGI [46]: 4.03 µM | TGI [47]: 3.74 µM | TGI [48]: 4.54 µM | TGI [49]: 4.04 µM | TGI [50]: 3.08 µM | TGI [51]: 4.68 µM | TGI [52]: 3.43 µM | TGI [53]: 3.91 µM | TGI [54]: 3.91 µM | TGI [55]: 3.84 µM | TGI [56]: 2.63 µM

CCN(CC)CCC(=O)/C=C/c1ccccc1
TGI [1]: 7.62 µM | TGI [2]: > 60.6 µM | TGI [3]: 39.9 µM | TGI [4]: 26.2 µM | TGI [5]: 21.9 µM | TGI [6]: 14.1 µM | TGI [7]: > 47.2 µM | TGI [8]: 18 µM | TGI [9]: > 73.9 µM | TGI [10]: 22.6 µM | TGI [57]: 34.8 µM | TGI [11]: 22.4 µM | TGI [12]: 32 µM | TGI [13]: > 100 µM | TGI [14]: 54.5 µM | TGI [15]: 28.7 µM | TGI [16]: 39.9 µM | TGI [17]: 12.4 µM | TGI [18]: 35.5 µM | TGI [19]: 13.6 µM | TGI [20]: 18.5 µM | TGI [21]: 7.16 µM | TGI [22]: 33 µM | TGI [23]: 33.1 µM | TGI [58]: 10.6 µM | TGI [24]: 28.9 µM | TGI [25]: 23.2 µM | TGI [26]: 26.4 µM | TGI [27]: 24.2 µM | TGI [28]: 44.9 µM | TGI [29]: 48.1 µM | TGI [30]: 32.6 µM | TGI [31]: 24.2 µM | TGI [32]: 55.1 µM | TGI [33]: 12.1 µM | TGI [34]: > 94.4 µM | TGI [35]: 31.3 µM | TGI [36]: 52.5 µM | TGI [37]: 27.3 µM | TGI [38]: 7.5 µM | TGI [39]: 21.5 µM | TGI [40]: 15.6 µM | TGI [41]: 40.1 µM | TGI [42]: 37.5 µM | TGI [43]: 65.5 µM | TGI [44]: 30.8 µM | TGI [45]: 44.8 µM | TGI [47]: 38.6 µM | TGI [48]: 37.1 µM | TGI [49]: 28.8 µM | TGI [50]: 16.1 µM | TGI [51]: 23.4 µM | TGI [52]: 32.3 µM | TGI [53]: 25.6 µM | TGI [54]: 31.6 µM | TGI [56]: 25.8 µM
